In US20220235032A1 (GENFLEET THERAPEUTICS (SHANGHAI) INC., priority 2019, published 2022):

What was measured:
RIPK1 enzyme = target: T1, RIPK1 enzyme (Homo sapiens, UniProt Q13546); test: Inhibitory activity of the compounds against RIPK1 enzyme (P33-ATP, MBP substrate); format: biochemical; details: 36 nM RIPK1, substrate MBP, 10 mM magnesium ion, P33-labeled ATP, 2 h room temperature; read-out: RIPK1 enzyme inhibitory activety IC50
T1 construct: purchased Eurofins 16-022
T1 sequence (Q13546 1-671): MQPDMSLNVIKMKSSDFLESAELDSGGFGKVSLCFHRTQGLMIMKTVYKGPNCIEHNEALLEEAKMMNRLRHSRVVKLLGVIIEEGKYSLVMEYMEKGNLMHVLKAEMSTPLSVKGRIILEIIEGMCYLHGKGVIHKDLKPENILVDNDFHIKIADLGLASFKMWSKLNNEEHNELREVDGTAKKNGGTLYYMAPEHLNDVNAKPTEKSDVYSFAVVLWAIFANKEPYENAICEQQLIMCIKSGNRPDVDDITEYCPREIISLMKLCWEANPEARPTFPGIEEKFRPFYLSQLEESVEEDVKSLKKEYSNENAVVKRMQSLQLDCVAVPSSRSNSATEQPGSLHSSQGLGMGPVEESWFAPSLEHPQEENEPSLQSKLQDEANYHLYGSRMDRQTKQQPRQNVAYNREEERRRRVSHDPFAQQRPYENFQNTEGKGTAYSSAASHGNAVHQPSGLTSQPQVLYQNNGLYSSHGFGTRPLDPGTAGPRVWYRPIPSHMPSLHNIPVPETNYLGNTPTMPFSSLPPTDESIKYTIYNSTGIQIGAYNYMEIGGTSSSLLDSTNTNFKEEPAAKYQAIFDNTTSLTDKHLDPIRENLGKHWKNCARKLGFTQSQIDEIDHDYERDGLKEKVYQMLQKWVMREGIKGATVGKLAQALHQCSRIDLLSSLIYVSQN
Experimental: The compound to be tested was dissolved in DMSO, and diluted in 3.16 folds with DMSO to a series of gradient concentrations. Then, the solution was diluted with MOPS buffer pH 7.0 to the final concentration. The resultant working solution was mixed with 36 nM RIPK1 (final concentration) and the substrate MBP homogeneously. Thereafter, 10 mM magnesium ion and P^33 isotopically labeled ATP were added for the reaction. After the reaction was carried out at room temperature for 2 h, phosphoric acid was added to terminate the reaction. The final reaction system was tested using a liquid scintillation counter after treatment. The […] for the tested result and a positive control group were converted to activity percentage. The activity percentage was plotted against the final concentration of respective compound using a 4-parameter fitting to obtain the inhibitory IC50 of the compound against RIPK1 enzyme.

U937 cells = test: Inhibitory activity against programmed necroptosis of U937 cells induced by TNF-α and Q-VD-Oph (CellTiter-Glo); format: cell-based; details: Celltiter-Glo survival rate
Experimental: The U937 cell strain which was used in the following Testing Examples was derived from ATCC, No.: CRL-1593.2, batch No.: 63479999, culture medium: RPMI-1640+10% FBS.
The compound to be tested was dissolved in DMSO, and diluted with DMSO to a series of gradient concentrations. The U937 cells were inoculated in a 384-well plate at 5000/well. The compound at respective concentration was added to each of the wells, and was mixed with the cells homogeneously. Human TNF-α and Q-VD-Oph were added simultaneously to induce programmed necroptosis of the cells. The cells were placed in the incubator at 37° C. and 5% CO2 for further culture of 48 h. Celltiter-Glo reagent was used for detection. After adequate pyrolysis reaction, the chemiluminescence readout value was recorded by a microplate reader. The survival rate was calculated from the detection results using the equation as follows: SR (%)=(RLU compound−RLU blank)/(RLU high control−RLU blank)×100%. The survival rate was plotted against the final concentration of respective compound using a 4-parameter fitting to calculate the inhibitory C50 of the compound against programmed necroptosis of cells induced by TNF-α.

[1] = human TNF-α + Q-VD-Oph induced necroptosis, 48 h

IC50 (RIPK1 enzyme) [µM] | SMILES | IC50 (U937 cells; Homo sapiens, U-937, 48 h) [µM] | IC50 (U937 cells; [1]) [µM]
0.029 | N#Cc1cc(N2CC3CC(C(=O)N4N=CCC4c4ccccc4)CC3C2)ncn1 (single isomer, unassigned) [Compound Z-9-1] | 0.157 | 
0.042 | N#Cc1cc(N2CCC(C(=O)N3N=CCC3c3cc(F)cc(F)c3)C3(CC3)C2)ncn1 (single isomer, unassigned) [Compound Z-25-2] | 0.001 | 
0.05 | N#Cc1cc(N2CC[C@H](C(=O)N3N=CC[C@H]3c3cncc(F)c3)C3(CC3)C2)ncn1 (single isomer, unassigned) [Compound Z-48-d] | 0.007 | 
0.095 | NC(=O)c1cc(N2CC3CC(C(=O)N4N=CCC4c4ccccc4)CC3C2)ncn1 (centres unmarked) [Compound Z-10] | 0.153 | 
0.089 | N#Cc1cc(N2CC3CC(C(=O)N4N=CCC4c4cc(F)cc(F)c4)CC3C2)ncn1 (centres unmarked) [Compound Z-11, 6-(5-(5-(3,5-difluorophenyl)-4,5-dihydro-1H-pyrazole-1-carbonyl)hexahydrocyclopenta[C]pyrrol-2(1H)-yl)pyrimidine-4-carbonitrile] | 0.138 | 
0.123 | COc1cc(N2CC3CC(C(=O)N4N=CCC4c4ccccc4)CC3C2)ncn1 (centres unmarked) [Compound Z-12, (2-(6-methoxypyrimidin-4-yl)octahydrocyclopenta[c]pyrrol-5-yl)(5-phenyl-4,5-dihydro-1H-pyrazol-1-yl) ketone] |  | 
0.063 | COc1nccc(N2CC3CC(C(=O)N4N=CCC4c4ccccc4)CC3C2)n1 (centres unmarked) [Compound Z-13, (2-(2-methoxypyrimidin-4-yl)octahydrocyclopenta[c]pyrrol-5-yl)(5-phenyl-4,5-dihydro-1H-pyrazol-1-yl) ketone] | 0.146 | 
 | NC(=O)c1cc(N2CC3CC(C(=O)N4N=CCC4c4cc(F)ccc4F)CC3C2)ncn1 (centres unmarked) [Compound Z-20, 6-(5-(5-(2,5-difluorophenyl)-4,5-dihydro-1H-pyrazole-1-carbonyl)hexahydrocyclopenta[c]pyrrol-2(1H)-yl)pyrimidine-4-carboxamide] | 0.272 | 
 | NC(=O)c1ccnc(N2CC3CC(C(=O)N4N=CCC4c4cc(F)ccc4F)CC3C2)n1 (centres unmarked) [Compound Z-22, 2-(5-(5-(2,5-difluorophenyl)-4,5-dihydro-1H-pyrazole-1-carbonyl)hexahydrocyclopenta [c]pyrrol-2(1H)-yl)pyrimidine-4-carboxamide] | 0.07 | 
 | Nc1nc(N2CC3CC(C(=O)N4N=CCC4c4cc(F)cc(F)c4)CC3C2)ncc1F (centres unmarked) [Compound Z-23, (2-(4-amino-5-fluoropyrimidin-2-yl)octahydrocyclopenta[c]pyrrol-5-yl)(5-(3,5-difluorophenyl)-4,5-dihydro-1H-pyrazol-1-yl) ketone] | 0.052 | 
 | N#Cc1ccnc(N2CC3CC(C(=O)N4N=CCC4c4cc(F)ccc4F)CC3C2)n1 (centres unmarked) [Compound Z-24, 2-(5-(5-(2,5-difluorophenyl)-4,5-dihydro-1H-pyrazole-1-carbonyl)hexahydrocyclopenta[c]pyrrol-2(1H)-yl)pyrimidine-4-carbonitrile] | 0.181 | 
 | Nc1nc(N2CC3CC(C(=O)N4N=CCC4c4cncc(F)c4)CC3C2)ncc1F (centres unmarked) [Compound Z-30, (2-(4-amino-5-fluoropyrimidin-2-yl)octahydrocyclopenta[c]pyrrol-5-yl)(5-(5-fluoropyridin-3-yl)-4,5-dihydro-1H-pyrazol-1-yl) ketone] | 0.449 | 
 | N#Cc1ccnc(N2CC3CC(C(=O)N4N=CCC4c4cncc(F)c4)CC3C2)n1 (centres unmarked) [Compound Z-31, 2-(5-(5-(5-fluoropyridin-3-yl)-4,5-dihydro-1H-pyrazole-1-carbonyl)hexahydrocyclopenta[c]pyrrol-2(1H)-yl)pyrimidine-4-carbonitrile] | 0.408 | 
 | N#Cc1ccnc(N2CC3CC(C(=O)N4N=CCC4c4cc(F)cc(F)c4)CC3C2)n1 (centres unmarked) [Compound Z-32, 2-(5-(5-(3,5-difluorophenyl)-4,5-dihydro-1H-pyrazole-1-carbonyl)hexahydrocyclopenta [c]pyrrol-2(1H)-yl)pyrimidine-4-carbonitrile] | 0.06 | 
 | Cc1nnc(N2CCC(C(=O)N3N=CCC3c3cc(F)cc(F)c3)C3(CC3)C2)o1 (centres unmarked) [Compound Z-61, (5-(3,5-difluorophenyl)-4,5-dihydro-1H-pyrazol-1-yl)(5-(5-methyl-1,3,4-oxadizol-2-yl)-5-aza-spiro[2.5]octane-8-yl) ketone] |  | 0.053
 | N#Cc1cc(N2CCC(C(=O)N3N=CCC3c3cc(F)cc(F)c3)CC23CC3)ncn1 (centres unmarked) [Compound Z-62, 6-(7-(5-(3,5-difluorophenyl)-4,5-dihydro-1H-pyrazole-1-carbonyl)-4-aza-spiro[2.5]oct-4-yl)pyrimidine-4-carbonitrile] | 0.007 | 
 | Cc1nnc(N2CCC(C(=O)N3N=CCC3c3cc(F)cc(F)c3)C3(CC3)C2)o1 (centres unmarked) [Compound Z-63-2, (5-(3,5-difluorophenyl)-4,5-dihydro-1H-pyrazol-1-yl)(5-(5-methyl-1,3,4-oxadizol-2-yl)-5-aza-spiro[2.5]octane-8-yl) ketone] |  | 0.021
 | Cc1nnc(N2CCC(C(=O)N3N=CCC3c3cc(F)cc(F)c3)C3(CC3)C2)o1 (centres unmarked) [Compound Z-63-a, (5-(3,5-difluorophenyl)-4,5-dihydro-1H-pyrazol-1-yl)(5-(5-methyl-1,3,4-oxadizol-2-yl)-5-aza-spiro[2.5]octane-8-yl) ketone] |  | 0.032
 | NC(=O)c1cc(N2CCC(C(=O)N3N=CCC3c3cc(F)cc(F)c3)CC23CC3)ncn1 (centres unmarked) [Compound Z-64-1, 6-(7-(5-(3,5-difluorophenyl)-4,5-dihydro-1H-pyrazole-1-carbonyl)-4-aza-spiro[2.5]oct-4-yl)pyrimidine-4-carboxamide] |  | 0.006
 | N#Cc1cc(N2CCC(C(=O)N3N=CCC3c3cncc(F)c3)CC23CC3)ncn1 (centres unmarked) [Compound Z-65, 6-(7-(5-(5-fluoropyridin-3-yl)-4,5-dihydro-1H-pyrazole-1-carbonyl)-4-aza-spiro[2.5]oct-4-yl)pyrimidine-4-carbonitrile] | 0.052 | 
 | NC(=O)c1cc(N2CCC(C(=O)N3N=CCC3c3cc(F)cc(F)c3)CC23CC3)ncn1 (centres unmarked) [Compound Z-66, 6-(7-(5-(3,5-difluorophenyl)-4,5-dihydro-1H-pyrazole-1-carbonyl)-4-aza-spiro[2.5]oct-4-yl)pyrimidine-4-carboxamide] |  | 0.02
 | NC(=O)c1cc(N2CCC(C(=O)N3N=CCC3c3cncc(F)c3)CC23CC3)ncn1 (centres unmarked) [Compound Z-67, 6-(7-(5-(5-fluoropyridin-3-yl)-4,5-dihydro-1H-pyrazole-1-carbonyl)-4-aza-spiro[2.5]oct-4-yl)pyrimidine-4-carboxamide] | 0.115 | 
 | Cc1nnc(N2CCC(C(=O)N3N=CCC3c3cncc(F)c3)C3(CC3)C2)o1 (centres unmarked) [Compound Z-68, (5-(5-fluoropyridin-3-yl)-4,5-dihydro-1H-pyrazol-1-yl)(5-(5-methyl-1,3,4-oxadizol-2-yl)-5-aza-spiro[2.5]oct-8-yl) methanone] |  | 0.364
 | CNC(=O)c1cc(N2CCC(C(=O)N3N=CCC3c3cc(F)cc(F)c3)CC23CC3)ncn1 (centres unmarked) [Compound Z-70-a, 6-(7-(5-(3,5-difluorophenyl)-4,5-dihydro-11H-pyrazole-1-carbonyl)-4-aza-spiro[2.5]oct-4-yl)-N-methylpyrimidine-4-carboxamide] |  | 0.021
0.168 | N#Cc1cc(N2CC3CC(C(=O)N4N=CCC4c4ccccc4)CC3C2)ncn1 (centres unmarked) [Compound Z-72, 6-(5-(5-phenyl-4,5-dihydro-1H-pyrazole-1-carbonyl)hexahydrocyclopenta[C]pyrrol-2(1H)-yl)pyrimidine-4-carbonitrile] | 0.03 | 
